In general, IC50 refers to the concentration at which inhibition is half-maximal.

The target of assay [1] is T1, recombinant human Estrogen Receptor alpha ligand binding domain, residues 307-554 (ER alpha-LBD (GST)) (Homo sapiens, UniProt P03372).
T1 construct: made in house
T1 sequence (P03372 307-554): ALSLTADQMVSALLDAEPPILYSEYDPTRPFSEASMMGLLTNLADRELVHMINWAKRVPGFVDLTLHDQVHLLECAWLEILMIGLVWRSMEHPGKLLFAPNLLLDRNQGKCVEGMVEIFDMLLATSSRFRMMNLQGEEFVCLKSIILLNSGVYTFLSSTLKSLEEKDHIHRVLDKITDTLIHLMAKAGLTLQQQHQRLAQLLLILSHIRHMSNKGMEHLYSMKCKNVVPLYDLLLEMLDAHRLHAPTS
Description: ERα binding assay (LanthaScreen TR-FRET competition). Particulars: TR-FRET competition with Fluormone ES2 tracer, 4 hours at room temperature; single experiment or average of two or more. On the technique in general: In TR-FRET formats the signal depends on donor and acceptor labels being close together.

The target in assay [2] is T2, Estrogen Receptor (ERα) in MCF-7 human ductal carcinoma breast cell line (Homo sapiens, UniProt P03372).
T2 construct: endogenous in cells; host or cells: MCF-7
T2 sequence (P03372 1-595): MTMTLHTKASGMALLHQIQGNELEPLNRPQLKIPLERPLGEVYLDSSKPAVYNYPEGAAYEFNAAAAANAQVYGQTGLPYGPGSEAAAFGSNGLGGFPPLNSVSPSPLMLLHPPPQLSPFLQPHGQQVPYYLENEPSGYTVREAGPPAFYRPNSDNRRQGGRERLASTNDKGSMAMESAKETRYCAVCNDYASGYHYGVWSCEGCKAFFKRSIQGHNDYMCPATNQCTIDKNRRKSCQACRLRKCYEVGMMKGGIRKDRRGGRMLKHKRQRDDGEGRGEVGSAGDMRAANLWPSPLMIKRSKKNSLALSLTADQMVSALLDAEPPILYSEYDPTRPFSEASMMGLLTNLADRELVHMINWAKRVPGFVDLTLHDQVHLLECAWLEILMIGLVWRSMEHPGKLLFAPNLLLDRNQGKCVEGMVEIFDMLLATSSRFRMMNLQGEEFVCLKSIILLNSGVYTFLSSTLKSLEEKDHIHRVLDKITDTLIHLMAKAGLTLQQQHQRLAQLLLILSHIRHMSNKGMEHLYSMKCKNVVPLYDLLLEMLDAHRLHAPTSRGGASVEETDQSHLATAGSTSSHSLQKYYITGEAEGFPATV
Description: MCF-7 ER degradation assay (cell based immuno-fluorescence). The settings on record: MCF-7 cells, 18-22 hours incubation, 50% reduction of ERα expression; single experiment or average of two or more; read-out: MCF-7 ER degradation IC50. In outline: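 MCF-7 human ductal carcinoma breast cells were seeded at 3.75×10^4 cells per mL (40 μL per well) in 384 well plates with phenol red free DMEM containing 2 mM L-Glutamine and 5% (v/v) Charcoal/Dextran treated foetal calf serum. After overnight culture, compounds were acoustically dispensed, incubated 18-22 hours, then cells were formaldehyde-fixed and immunostained for ERα.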

Structures are written as SMILES.

On to `Cc1ncsc1-c1ccc(CNC(=O)[C@@H]2C[C@@H](O)CN2C(=O)[C@@H](NC(=O)COCc2cccnc2COc2cc(F)c([C@@H]3c4[nH]c5ccccc5c4C[C@@H](C)N3CC(C)(C)F)c(F)c2)C(C)(C)C)cc1` [Example 133, (2S,4R)-1-((S)-2-(2-((2-((3,5-Difluoro-4-((1R,3R)-2-(2-fluoro-2-methylpropyl)-3-methyl-2,3,4,9-tetrahydro-1H-pyrido[3,4-b]indol-1-yl)phenoxy)methyl)pyridin-3-yl)methoxy)acetamido)-3,3-dimethylbutanoyl)-4-hydroxy-N-(4-(4-methylthiazol-5-yl)benzyl)pyrrolidine-2-carboxamide], for which, in assay [1], the IC50 was found to be 0.7 nM. Moreover, the DC50 in assay [2] was 0.8 nM.
The matching figures for `Cc1ncsc1-c1ccc(CNC(=O)[C@@H]2C[C@@H](O)CN2C(=O)[C@@H](NC(=O)COCCCOc2cc(F)c([C@@H]3c4[nH]c5ccccc5c4C[C@@H](C)N3CC(C)(C)F)c(F)c2)C(C)(C)C)cc1` [Example 41, (2S,4R)-1-((S)-2-(2-(3-(3,5-difluoro-4-((1R,3R)-2-(2-fluoro-2-methylpropyl)-3-methyl-2,3,4,9-tetrahydro-1H-pyrido[3,4-b]indol-1-yl)phenoxy)propoxy)acetamido)-3,3-dimethylbutanoyl)-4-hydroxy-N-(4-(4-methylthiazol-5-yl)benzyl)pyrrolidine-2-carboxamide]: 0.7 nM and 1.7 nM.
The matching figures for `Cc1ncsc1-c1ccc(CNC(=O)[C@@H]2C[C@@H](O)CN2C(=O)[C@@H](NC(=O)c2ccc(COc3cc(F)c([C@@H]4c5[nH]c6ccccc6c5C[C@@H](C)N4CC(C)(C)F)c(F)c3)cc2)C(C)(C)C)cc1` [Example 36, (2S,4R)-1-((S)-2-(4-((3,5-Difluoro-4-((1R,3R)-2-(2-fluoro-2-methylpropyl)-3-methyl-2,3,4,9-tetrahydro-1H-pyrido[3,4-b]indol-1-yl)phenoxy)methyl)benzamido)-3,3-dimethylbutanoyl)-4-hydroxy-N-(4-(4-methylthiazol-5-yl)benzyl)pyrrolidine-2-carboxamide]: 1 nM and 1 nM.
The matching figures for `Cc1ncsc1-c1ccc(CNC(=O)[C@@H]2C[C@@H](O)CN2C(=O)[C@@H](NC(=O)CCCNCCCCCCOc2cc(F)c([C@@H]3c4[nH]c5ccccc5c4C[C@@H](C)N3CC(C)(C)F)c(F)c2)C(C)(C)C)cc1` [Example 151, (2S,4R)-1-((S)-2-(4-((6-(3,5-Difluoro-4-((1R,3R)-2-(2-fluoro-2-methylpropyl)-3-methyl-2,3,4,9-tetrahydro-1H-pyrido[3,4-b]indol-1-yl)phenoxy)hexyl)amino)butanamido)-3,3-dimethylbutanoyl)-4-hydroxy-N-(4-(4-methylthiazol-5-yl)benzyl)pyrrolidine-2-carboxamide]: 3.6 nM and 54 nM.
As for `Cc1ncsc1-c1ccc(CNC(=O)[C@@H]2C[C@@H](O)CN2C(=O)[C@@H](NC(=O)CN2CCC3(CCN(CCOc4cc(F)c([C@@H]5c6[nH]c7ccccc7c6C[C@@H](C)N5CC(C)(C)F)c(F)c4)CC3)CC2)C(C)(C)C)cc1` [Example 43, (2S,4R)-1-((S)-2-(2-(9-(2-(3,5-difluoro-4-((R,3R)-2-(2-fluoro-2-methylpropyl)-3-methyl-2,3,4,9-tetrahydro-1H-pyrido[3,4-b]indol-1-yl)phenoxy)ethyl)-3,9-diazaspiro[5.5]undecan-3-yl)acetamido)-3,3-dimethylbutanoyl)-4-hydroxy-N-(4-(4-methylthiazol-5-yl)benzyl)pyrrolidine-2-carboxamide], the IC50 in assay [1] stood at 2.3 nM. Further, in assay [2], the DC50 turned out to be 4.8 nM.
The matching figures for `Cc1ncsc1-c1ccc(CNC(=O)[C@@H]2C[C@@H](O)CN2C(=O)[C@@H](NC(=O)COCC/C=C/CCOc2ccc([C@@H]3c4[nH]c5ccccc5c4C[C@@H](C)N3CC(F)F)nc2)C(C)(C)C)cc1` [Example 21, (2S,4R)-1-((S)-2-(2-(((E)-6-((6-((1S,3R)-2-(2,2-Difluoroethyl)-3-methyl-2,3,4,9-tetrahydro-1H-pyrido[3,4-b]indol-1-yl)pyridin-3-yl)oxy)hex-3-en-1-yl)oxy)acetamido)-3,3-dimethylbutanoyl)-4-hydroxy-N-(4-(4-methylthiazol-5-yl)benzyl)pyrrolidine-2-carboxamide]: 13 nM and 300 nM.
